This test deals with NF-kB. The experiment in a line: TNF-α-induced NF-kB DNA binding, EMSA. The test is classed as cell-based, human. The settings on record: same treatment set. As for the experimental part: EMSA. Electrophoretic mobility shift assay (EMSA). Drug or vehicle control (DMSO) treated cells were pelleted by centrifugation (20,000×g for 1 min at 4° C.) and subsequently washed in five volumes of 10 mM HEPES, pH 7.9, 10 mM KCl, 1.5 mM MgCl2, 0.5 mM DTT, […], 5 μg/ml aprotinin, 1 μg/ml pepstatin A and 2 μg/ml leupeptin, centrifuged, then lysed in the same buffer supplemented with 1% NP-40 and incubated for 20 min on ice. The nuclei-containing pellet was resuspended in equal volumes of low salt buffer (10 mM HEPES, 25% glycerol, 1.5 mM MgCl2, 20 mM KCl, 0.5 mM DTT, 0.2 mM EDTA and protease inhibitors) and high salt buffer (low salt buffer containing 800 mM KCl). This fraction was then isolated by centrifugation at 4° C. for 10 min and supernatants saved as nuclear protein extract and stored at −70° C. Gel mobility shift assays were performed to detect Stat5a/b DNA binding activity using a Stat5 DNA binding sequence corresponding to the promoter of the β-casein gene (5′-[…]-3′) or an NF-kB binding element (5′-[…]-3′). Both probes were end-labeled with [^32P]dATP. […]
In FIG. 9A, it can be seen that NC1153 inhibits Jak3 driven transcription factor-Stat5a/b in PHA activated T-cells treated with increasing concentrations of NC1153 in a dose dependent manner as measured via EMSA analysis (upper panel). […]
For orientation: In EMSA bound probe runs differently from free probe, usually more slowly.

Entries after “also recorded” stand apart in the source; their conditions may differ.

Turning to `CN(C)CC1CCCCCCCCCC(CN(C)C)C1=O` (mixture of isomers) [649641P (NC1153)], the “NF-kB activation / DNA binding by TNF-α (EMSA)” value was “not affected; also recorded: no effect”. Further, where the note is “listed as NC1153”, the “NF-kB activation / DNA binding by TNF-α (EMSA)” value is listed as “not affected”.

Source of the values: patent publication US7365096B2, “Methods for selectively inhibiting Janus tyrosine kinase 3 (Jak3)” (Board of Regents, The University of Texas System, priority 2002, dated 2008).
